# Source: patent US8445509B2, “Fused heterocyclic derivatives and use thereof” (Takeda Pharmaceutical Company Limited, priority 2008, dated 2013)
# pIC50: −log10 of the molar value.
# How the values were obtained:
# [1] = molecular target: T1, VEGFR2 intracellular domain protein (Homo sapiens, UniProt P35968); assay: Vascular endothelial growth factor receptor 2 (VEGFR2) kinase inhibitory activity (AlphaScreen); type: biochemical
# T1 construct: made in house; host or cells: SF-21 insect cells, recombinant baculovirus BAC-VEGFR2
# T1 sequence (P35968 786-1356 limits assumed): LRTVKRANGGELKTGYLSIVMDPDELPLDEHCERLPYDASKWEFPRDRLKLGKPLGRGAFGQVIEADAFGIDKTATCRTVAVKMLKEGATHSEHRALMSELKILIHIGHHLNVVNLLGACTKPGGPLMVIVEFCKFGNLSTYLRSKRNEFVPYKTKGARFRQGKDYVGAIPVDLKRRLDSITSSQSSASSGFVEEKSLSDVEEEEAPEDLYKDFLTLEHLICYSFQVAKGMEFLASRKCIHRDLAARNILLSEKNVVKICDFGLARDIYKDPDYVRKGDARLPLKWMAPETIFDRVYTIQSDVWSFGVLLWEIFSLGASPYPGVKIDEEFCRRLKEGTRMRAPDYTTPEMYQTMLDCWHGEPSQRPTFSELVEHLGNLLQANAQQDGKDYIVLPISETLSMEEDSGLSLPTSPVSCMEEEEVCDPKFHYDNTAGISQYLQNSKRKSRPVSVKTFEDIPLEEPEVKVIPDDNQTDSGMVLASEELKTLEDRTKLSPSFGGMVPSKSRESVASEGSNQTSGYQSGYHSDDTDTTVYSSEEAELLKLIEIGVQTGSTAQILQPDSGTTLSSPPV
# Description: Human vascular endothelial growth factor receptor 2 (hereinafter to be referred to as VEGFR2) gene was cloned by PCR using cDNA Libraries Human Placenta (Clontech) as a template. […] The primer base sequence is shown below.
# SF-21 cells were sown at 1×10^6 cells/mL to Sf-900II SFM medium (1 L, Invitrogen) containing 10% fetal bovine serum (trace), 50 mg/L Gentamicin (Invitrogen) and 0.1% Pluronic F-68 (Invitrogen), and shaking culture was performed using a 2 L volume Erlenmeyer flask at 27° C., 100 rpm. After culturing for 24 hrs, recombinant baculovirus BAC-VEGFR2 (13.4 mL) was added to the mixture, and the mixture was further cultured for 3 days. The culture medium was centrifuged at 2,000 rpm for 5 min to give virus-infected cells. The infected cells were washed with a phosphate buffered saline (Invitrogen), centrifuged under the same conditions, and the cells were preserved at −80° C. The cryopreserved cells were thawed in ice, suspended in buffer A (50 mM Tris buffer (30 mL, pH 7.4) containing 20% glycerol, 0.15 M NaCl) supplemented with Complete Protease Inhibitor (Boehringer), and ruptured 3 times with a Polytron homogenizer (Kinematica) at 20,000 rpm for 30 sec. The ruptured medium was clarified by centrifugation at 40,000 rpm for 30 min and filtered with a 0.45 μm filter. The filtrate was passed through a column packed with Anti-FLAG M2 Affinity Gel (4 mL, Sigma) at a flow rate of about 0.5 mL/min. The column was washed with buffer A, and eluted with buffer A containing 100 μg/mL of FLAG peptide. The eluate was concentrated with Vivaspin 20 (Vivascience) having a molecular weight cut off of 30K. The buffer of this concentrate was exchanged using NAP™ 25 column (Amersham Bioscience) equilibrated with buffer A. The fractions containing intracellular domain protein of VEGFR2 were collected, glycerol was added to the final concentration of 50% and cryopreserved at −80° C.
# (§1) A test compound dissolved in dimethyl sulfoxide (DMSO) was diluted with a buffer (50 mM Tris-HCl (pH 7.5), 5 mM MgCl2, 5 mM MnCl2, 2 mM dithiothreitol, 0.01% Tween-20). To this compound solution (5 μL) was added a buffer (10 μL) containing 50 ng/mL of VEGFR2 intracellular domain protein and 250 ng/mL of biotin labeled polypeptide biotinyl-poly-Glu:Tyr (4:1) (CIS bio International). […] The reaction solution was allowed to stand at 25° C. for 16 hrs, and the wells were counted using a plate reader (Fusion™ (PerkinElmer)). The kinase inhibitory rate (%) of the test compound was calculated by the following formula: Inhibitory rate (%)=(1−(count of test compound−blank)÷(control−blank))×100
# (§2) The count of the solution reacted without addition of the compound was used as a “control”, and the count of the solution without the compound and ATP was used as a “blank”.
# [2] = molecular target: T2, c-Met intracellular domain protein (Homo sapiens, UniProt P08581); assay: Hepatocyte growth factor receptor (c-Met) kinase inhibitory activity (AlphaScreen); type: biochemical; conditions: for inhibition at 1 µM: 1 μM test compound, read-out: inhibitory rate (%) at 1 μM
# T2 construct: 2.5 ng/ml of c-Met intracellular domain protein (Millipore); purchased Millipore
# T2 sequence (P08581 956-1390 limits assumed): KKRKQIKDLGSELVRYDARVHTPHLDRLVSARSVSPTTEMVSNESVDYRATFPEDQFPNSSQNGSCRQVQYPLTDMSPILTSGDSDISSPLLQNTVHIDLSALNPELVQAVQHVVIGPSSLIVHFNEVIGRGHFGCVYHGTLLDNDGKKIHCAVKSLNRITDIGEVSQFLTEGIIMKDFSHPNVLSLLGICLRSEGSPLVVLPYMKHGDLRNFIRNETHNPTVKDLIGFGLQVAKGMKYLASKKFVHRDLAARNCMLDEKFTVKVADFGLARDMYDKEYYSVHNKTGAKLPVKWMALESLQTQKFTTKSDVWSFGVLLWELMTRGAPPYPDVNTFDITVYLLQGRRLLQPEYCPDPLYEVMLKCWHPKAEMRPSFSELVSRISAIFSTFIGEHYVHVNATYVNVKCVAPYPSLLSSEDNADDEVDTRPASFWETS
# Description: as §1, with “containing 2.5 ng/ml” for “containing 50 ng/mL”, “of c-Met” for “of VEGFR2”, “protein (Millipore)” for “protein”
# as §2
# [3] = test system: Human gastric cancer cell line MKN-45; assay: Human gastric cancer cell line MKN-45 growth inhibitory test; type: cell-based; conditions: MKN-45, 72 h, culture for 3 days; for inhibition at 1 µM: 1 μM test substance, read-out: inhibitory rate (%) at 1 μM; for pIC50: read-out: IC50 value
# Description: Human gastric cancer cell line MKN-45 (RIKEN BioResource Center) was cultured in RPMI1640 (Invitrogen) containing 10% bovine fetal serum in a gas incubator at 37° C., 5% CO2. MKN-45 cells were treated with trypsin/EDTA and recovered. The cells were suspended in RPMI1640 containing 0.3% bovine fetal serum, plated on a 96 well flat bottom plate at a cells density of 3000 cells/50 μL per well. After culturing overnight, various concentrations of test substance were dissolved in RPMI1640 containing 0.3% bovine fetal serum and added to each well by 50 μL. After culture for 3 days, a Cell counting kit-8 reagent (DOJINDO LABORATORIES) was added to each well by 10 μL, and reacted in an incubator at 37° C., 5% CO2 for 2-3 hr. After the reaction, the absorbance of each well at 450 nm was measured by a microtiter plate reader. The concentration of a test substance necessary for inhibiting the growth by 50% (IC50 value) was calculated using a cell proliferation rate with addition of the test substance at each concentration and according to the nonlinear regression analysis using GraphPad Prism [Sigmoidal dose response (variable slope)]. The cell proliferation rate (%) with addition of a test substance at each concentration was calculated by the following formula. As a positive control (100% growth), dimethyl sulfoxide was added instead of a test substance. As a negative control (0% growth), the compound of Reference Example 136 (WO2005/030140, Entry 104), which is a known c-Met inhibitor, was added in large excess (10 μM) instead of a test substance.
# [4] = test system: Human blood cell cancer cell line MV-4-11; assay: Human blood cell cancer cell line MV-4-11 growth inhibitory test; type: cell-based; conditions: MV4-11, 72 h, culture for 3 days; for inhibition at 1 µM: 1 μM test substance, read-out: inhibitory rate (%) at 1 μM
# Description: Human blood cell cancer cell line MV-4-11 (ATCC) was cultured in IMDM (Invitrogen) containing 10% bovine fetal serum in an incubator at 37° C., 5% CO2. MV-4-11 cells were treated with trypsin/EDTA and recovered. The cells were suspended in IMDM containing 10% bovine fetal serum, plated on a 96 well flat bottom plate at a cells density of 30,000 cells/50 μL per well. After culturing overnight, various concentrations of test substance were dissolved in IMDM containing 10% bovine fetal serum and added to each well by 50 μL. After culture for 3 days, a Cell counting kit-8 reagent (DOJINDO LABORATORIES) was added to each well by 10 μL, and reacted in an incubator at 37° C., 5% CO2 for 2-3 hr. After the reaction, the absorbance of each well at 450 nm was measured by a microtiter plate reader. The concentration of a test substance necessary for inhibiting the growth by 50% (IC50 value) was calculated using a cell proliferation rate with addition of the test substance at each concentration and according to the nonlinear regression analysis using GraphPad Prism [Sigmoidal dose response (variable slope)].
compound,measurement,setting,value
"Cc1ccc(C(=O)Nc2ccc(Oc3ccc4nc(NC(=O)C5CC5)cn4c3)cn2)c(=O)n1-c1ccc(F)cc1 [Example 60, N-[5-({2-[(cyclopropylcarbonyl)amino]imidazo[1,2-a]pyridin-6-yl}oxy)pyridin-2-yl]-1-(4-fluorophenyl)-6-methyl-2-oxo-1,2-dihydropyridine-3-carboxamide]",pIC50,[1],≥ 6.00
same,pIC50,[2],≥ 6.00
same,inhibition at 1 µM,[2],≥ 80%
same,inhibition at 1 µM,[3],≥ 80%
same,pIC50,[3],≥ 6.00
same,inhibition at 1 µM,[4],≥ 90%
same,pIC50,[4],≥ 6.00
"O=C(Nc1ccc(Oc2ccc3nc(NC(=O)C4CC4)cn3c2)c(F)c1)c1cccn(-c2ccc(F)cc2)c1=O [Example 10, N-[4-({2-[(cyclopropylcarbonyl)amino]imidazo[1,2-a]pyridin-6-yl}oxy)-3-fluorophenyl]-1-(4-fluorophenyl)-2-oxo-1,2-dihydropyridine-3-carboxamide]",pIC50,[1],≥ 6.00
same,pIC50,[2],≥ 6.00
same,inhibition at 1 µM,[2],≥ 80%
same,inhibition at 1 µM,[3],≥ 80%
same,pIC50,[3],≥ 6.00
same,inhibition at 1 µM,[4],≥ 90%
same,pIC50,[4],≥ 6.00
"Cc1ccc(C(=O)Nc2ccc(Oc3ccc4nc(NC(=O)C5CC5)cn4c3)c(F)c2)c(=O)n1-c1cccc(F)c1 [Example 75, N-[4-({2-[(cyclopropylcarbonyl)amino]imidazo[1,2-a]pyridin-6-yl}oxy)-3-fluorophenyl]-1-(3-fluorophenyl)-6-methyl-2-oxo-1,2-dihydropyridine-3-carboxamide]",pIC50,[1],≥ 6.00
same,pIC50,[2],≥ 6.00
same,inhibition at 1 µM,[2],≥ 80%
same,inhibition at 1 µM,[3],≥ 80%
same,pIC50,[3],≥ 6.00
same,inhibition at 1 µM,[4],≥ 90%
same,pIC50,[4],≥ 6.00
"Cc1ccc(C(=O)Nc2ccc(Oc3ccc4nc(NC(=O)C5CC5)cn4c3)cc2F)[n+]([O-])c1-c1ccc(F)cc1 [Example 84, N-[4-({2-[(cyclopropylcarbonyl)amino]imidazo[1,2-a]pyridin-6-yl}oxy)-2-fluorophenyl]-6-(4-fluorophenyl)-5-methylpyridine-2-carboxamide 1-oxide]",pIC50,[1],≥ 6.00
same,pIC50,[2],≥ 6.00
same,inhibition at 1 µM,[2],≥ 80%
same,inhibition at 1 µM,[3],≥ 80%
same,pIC50,[3],≥ 6.00
same,inhibition at 1 µM,[4],≥ 90%
same,pIC50,[4],≥ 6.00
"Cc1ccc(C(=O)Nc2ccc(Oc3ccc4nc(NC(=O)C5CC5)cn4c3)cc2)[n+]([O-])c1-c1ccc(F)cc1 [Example 72, N-[4-({2-[(cyclopropylcarbonyl)amino]imidazo[1,2-a]pyridin-6-yl}oxy)phenyl]-6-(4-fluorophenyl)-5-methylpyridine-2-carboxamide 1-oxide]",pIC50,[1],≥ 6.00
same,pIC50,[2],≥ 6.00
same,inhibition at 1 µM,[2],≥ 80%
same,inhibition at 1 µM,[3],≥ 80%
same,pIC50,[3],≥ 6.00
same,inhibition at 1 µM,[4],≥ 90%
same,pIC50,[4],≥ 6.00
"CC1CCN(C(=O)Nc2ccc(Oc3ccc4nc(NC(=O)C5CC5)cn4c3)c(F)c2)C(=O)N1c1ccc(F)cc1 (stereo not drawn) [Example 80, N-[4-({2-[(cyclopropylcarbonyl)amino]imidazo[1,2-a]pyridin-6-yl}oxy)-3-fluorophenyl]-3-(4-fluorophenyl)-4-methyl-2-oxotetrahydropyrimidine-1(2H)-carboxamide]",pIC50,[1],≥ 6.00
same,pIC50,[2],≥ 6.00
same,inhibition at 1 µM,[2],≥ 80%
same,inhibition at 1 µM,[3],≥ 80%
same,pIC50,[3],≥ 6.00
same,inhibition at 1 µM,[4],≥ 90%
same,pIC50,[4],≥ 6.00
"O=C(Nc1cn2cc(Oc3ccc(NC(=O)N4CCN(c5ccc(F)cc5)C4=O)cc3F)ccc2n1)C1CC1 [Example 53, N-[4-({2-[(cyclopropylcarbonyl)amino]imidazo[1,2-a]pyridin-6-yl}oxy)-3-sfluorophenyl]-3-(4-fluorophenyl)-2-oxoimidazolidine-1-carboxamide]",pIC50,[1],≥ 6.00
same,pIC50,[2],≥ 6.00
same,inhibition at 1 µM,[2],≥ 80%
same,inhibition at 1 µM,[3],≥ 80%
same,pIC50,[3],≥ 6.00
same,inhibition at 1 µM,[4],≥ 90%
same,pIC50,[4],≥ 6.00
"Cc1ccc(C(=O)Nc2ccc(Oc3ccc4nc(NC(=O)C5CC5)cn4c3)c(F)c2)[n+]([O-])c1-c1cccc(F)c1 [Example 93, N-[4-({2-[(cyclopropylcarbonyl)amino]imidazo[1,2-a]pyridin-6-yl}oxy)-3-fluorophenyl]-6-(3-fluorophenyl)-5-methylpyridine-2-carboxamide 1-oxide]",pIC50,[1],≥ 6.00
same,pIC50,[2],≥ 6.00
same,inhibition at 1 µM,[2],≥ 80%
same,inhibition at 1 µM,[3],≥ 80%
same,pIC50,[3],≥ 6.00
same,inhibition at 1 µM,[4],≥ 90%
same,pIC50,[4],≥ 6.00
"Cc1c(C(=O)Nc2ccc(Oc3ccc4nc(NC(=O)C5CC5)cn4c3)c(F)c2)c(=O)n(-c2ccc(F)cc2)n1C [Example 77, N-[4-({2-[(cyclopropylcarbonyl)amino]imidazo[1,2-a]pyridin-6-yl}oxy)-3-fluorophenyl]-2-(4-fluorophenyl)-1,5-dimethyl-3-oxo-2,3-dihydro-1H-pyrazole-4-carboxamide]",pIC50,[1],≥ 6.00
same,pIC50,[2],≥ 6.00
same,inhibition at 1 µM,[2],≥ 80%
same,inhibition at 1 µM,[3],≥ 80%
same,pIC50,[3],≥ 6.00
same,inhibition at 1 µM,[4],≥ 90%
same,pIC50,[4],≥ 6.00
